Data set [1] deals with Cholinesterase (Homo sapiens) (UniProt P06276). Briefly: Inhibition of human blood BChE at 1 to 25 uM using butyrylthiocholine iodide as substrate measured after 20 mins by fluorescence assay. It counts as tissue-based. Particulars: dose microM 1-25, time 20.0 min.
Data set [2] can be described thus: Solubility of the compound in pH 7.4 PBS buffer at 100 uM measured after 24 hrs by LC-MS/MS analysis. It counts as physicochemical.
Data set [3] is described as follows: Partition coefficient, log P of the compound in pH 7.4 1-octanol/PBS buffer at 38 mg measured after 1 hr by LC-MS/MS analysis. It counts as physicochemical.
Data set [4] in a line: Permeability of the compound in PBS/EtOH solution measured after 16 hrs by PAMPA. It counts as ADME. Particulars: read-out: permeability.
Data set [5] addresses T1, Acetylcholinesterase (Homo sapiens, UniProt P22303). Briefly: Mixed type inhibition of recombinant human AChE at […] using varying levels of ATC as substrate by Lineweaver-burk plot analysis. Particulars: dose microM 0.5-10.
The nature of data set [6]: Binding affinity to 3'-fluorescein-labelled pre-miRNA-15b (unknown origin) measured after 30 mins by FRET assay.
Data set [7] is described as follows: Binding affinity to 5'Dabcyl/3'-fluorescein-labelled pre-miRNA-15b (unknown origin) assessed as inhibition of recombinant human dicer-mediated pre-miRNA processing preincubated for 30 mins followed by dicer addition and measured after 5 hrs by FRET assay.
The nature of data set [8]: Binding affinity to miRNA-15b variant (unknown origin) transfected in human SH-SY5Y cells at 0.5 to 10 uM preincubated with cells for 4 hrs followed by transfection and measured after 4 days by renilla luciferase reporter gene assay. It counts as cell-based. The following applies: dose microM 0.5-10, time 4.0 hrs.
Data set [9] is described as follows: Binding affinity to 5'Dabcyl/3'-fluorescein-labelled pre-miRNA146a (unknown origin) assessed as inhibition of recombinant human dicer-mediated pre-miRNA processing at 10 uM preincubated for 30 mins followed by dicer addition and measured after 5 hrs by FRET assay.
Data set [10] can be described thus: Binding affinity to 5'Dabcyl/3'-fluorescein-labelled pre-miRNA-15b (unknown origin) assessed as inhibition of dicer-mediated pre-miRNA processing […] by FRET assay.
Data set [11] is described as follows: Half life in Sprague-Dawley rat liver microsomes at 100 uM measured at 20 mins interval by LC-MS/MS analysis. It counts as ADME, Microsome.
The test system of data set [12] is HEL 299. Briefly: Cytotoxicity against HEL 299 cells measured after 2 days by MTT assay. It counts as cell-based. Particulars: Homo sapiens, HEL 299, 48 h. On the technique in general: Formazan colour is commonly taken as a measure of viable cells.
Data set [13] in a line: Binding affinity to 5'Dabcyl/3'-fluorescein-labelled pre-miRNA212 (unknown origin) assessed as inhibition of recombinant human dicer-mediated pre-miRNA processing at 10 uM preincubated for 30 mins followed by dicer addition and measured after 5 hrs by FRET assay.
For data set [14], the system named is SH-SY5Y. As to the kind of experiment: Protection against amyloid beta oligomer-induced cytotoxicity in human SH-SY5Y cells expressing miRNA-15b assessed as cell viability at 10 uM after 72 hrs by MTT assay relative to control. It counts as functional. Particulars: read-out: Activity.
Data set [15] is described as follows: Half life in pH 6.5 simulated intestinal fluid at 100 uM by LC-MS/MS analysis. Type of data set: ADME.
For data set [16], the species on record is Homo sapiens. Briefly: Inhibition of miRNA-15b biogenesis in human SH-SY5Y cells at 10 uM measured after 96 hrs by Trizol reagent based RT-qPCR analysis relative to control. It counts as cell-based. (In general: Real-time PCR tracks product formation cycle by cycle.)
Data set [17] in a line: Apparent permeability across basolateral to apical side in human Caco2 cells after 120 mins by LC-MS/MS analysis. It counts as ADME, cell-based. The following applies: Caco-2. Background: Caco-2 cells form a polarised layer with tight junctions and transporters.
The nature of data set [18]: Half life in pH 1.6 simulated gastric fluid at 100 uM by LC-MS/MS analysis. Type of data set: ADME.
The target in data set [19] is T1, Acetylcholinesterase. Briefly: Inhibition of recombinant human AChE at 10 uM using ATC as substrate by DTNB-reagent based Ellman's method relative to control.
The target of data set [20] is T1, Acetylcholinesterase. As to the kind of experiment: Inhibition of recombinant human AChE using ATC as substrate by DTNB-reagent based Ellman's method.
A short description of data set [21]: Stability in human serum assessed as parent compound remaining at 100 uM measured after 2 hrs by LC-MS/MS analysis. Type of data set: ADME, cell-free. Particulars: read-out: Stabilty.
A short description of data set [22]: Apparent permeability across apical to basolateral side in human Caco2 cells after 120 mins by LC-MS/MS analysis. It counts as ADME, cell-based. The following applies: Caco-2.
The nature of data set [23]: Binding affinity to 5'Dabcyl/3'-fluorescein-labelled pre-miRNA124 (unknown origin) assessed as inhibition of recombinant human dicer-mediated pre-miRNA processing at 10 uM preincubated for 30 mins followed by dicer addition and measured after 5 hrs by FRET assay.
Data set [24] is described as follows: Binding affinity to 5'Dabcyl/3'-fluorescein-labelled pre-miRNA-15b (unknown origin) assessed as inhibition of recombinant human dicer-mediated pre-miRNA processing at 10 uM preincubated for 30 mins followed by dicer addition and measured after 5 hrs by FRET assay.

Converted amounts (≈) assume the structure as drawn. The source made the active and inactive calls. The calls are words filed in the database; no cut-off is given here. Some results are limits rather than exact numbers.

T1 sequence (P22303 whole entry): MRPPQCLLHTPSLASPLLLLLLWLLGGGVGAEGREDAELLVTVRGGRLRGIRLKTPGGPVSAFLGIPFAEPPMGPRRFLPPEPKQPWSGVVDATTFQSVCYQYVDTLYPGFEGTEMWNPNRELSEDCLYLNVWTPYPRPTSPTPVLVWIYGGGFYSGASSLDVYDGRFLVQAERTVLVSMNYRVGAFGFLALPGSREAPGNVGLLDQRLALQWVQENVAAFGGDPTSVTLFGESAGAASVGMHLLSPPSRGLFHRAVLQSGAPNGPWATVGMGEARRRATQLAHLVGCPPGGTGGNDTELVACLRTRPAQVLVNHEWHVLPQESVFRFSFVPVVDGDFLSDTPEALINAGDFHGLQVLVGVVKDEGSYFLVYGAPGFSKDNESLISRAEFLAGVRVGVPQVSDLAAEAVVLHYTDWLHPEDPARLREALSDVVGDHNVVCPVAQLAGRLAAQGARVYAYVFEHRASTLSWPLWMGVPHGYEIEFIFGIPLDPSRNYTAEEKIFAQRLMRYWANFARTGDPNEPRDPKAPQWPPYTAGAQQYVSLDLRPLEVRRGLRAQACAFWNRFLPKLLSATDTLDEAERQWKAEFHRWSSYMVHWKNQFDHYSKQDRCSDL
Cholinesterase (Homo sapiens), sequence (P06276 whole entry): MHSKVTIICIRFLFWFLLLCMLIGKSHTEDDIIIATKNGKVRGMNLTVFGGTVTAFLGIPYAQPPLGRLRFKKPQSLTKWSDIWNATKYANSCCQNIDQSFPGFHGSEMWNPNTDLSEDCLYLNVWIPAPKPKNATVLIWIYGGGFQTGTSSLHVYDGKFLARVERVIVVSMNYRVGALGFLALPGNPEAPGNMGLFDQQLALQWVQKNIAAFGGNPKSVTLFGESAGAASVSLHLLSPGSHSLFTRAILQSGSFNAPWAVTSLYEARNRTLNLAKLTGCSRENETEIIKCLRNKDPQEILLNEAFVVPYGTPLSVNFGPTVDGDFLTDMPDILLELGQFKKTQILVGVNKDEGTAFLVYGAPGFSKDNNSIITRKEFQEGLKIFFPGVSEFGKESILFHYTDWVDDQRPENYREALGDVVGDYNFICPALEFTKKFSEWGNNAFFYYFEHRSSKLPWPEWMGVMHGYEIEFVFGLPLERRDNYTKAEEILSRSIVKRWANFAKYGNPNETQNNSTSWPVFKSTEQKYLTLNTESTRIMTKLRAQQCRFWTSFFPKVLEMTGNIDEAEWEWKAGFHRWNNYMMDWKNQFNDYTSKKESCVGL

`CCN(C)C(=O)Oc1cccc([C@H](C)N(C)C)c1`: the inhibition result in data set [1] was “Active”.
For the compound `COCCn1cnc2cc(NC(=O)c3ccccc3)cc(C(=O)NCc3cc(F)cc(F)c3)c21`, the solubility at 24 h, 100 µM in data set [2] is 34 µM (≈ 15.8 µg/mL). The compound also had a logD at 1 h in data set [3] of 2.34. Further, the Papp at 16 h in [4] turned out to be 30.8 ×10⁻⁶ cm/s. Also, the inhibition entry in data set [5], in data set [1] and in data set [24] was “Active” each time. The compound also registered a Kd in [6] of 810 nM. Also, the IC50 in data set [7] was 370 nM; in data set [10], 530 nM; in data set [12] it was above 50000 nM; in [20], 120 nM. In addition, the outcome in data set [8] was inactive. The inhibition result in data set [9], in [13] and in data set [23] was “inactive” throughout. For the same compound, the half-life at 100 µM is above 5 h in data set [11], above 8.33 h in data set [15] and 6.87 h in data set [18]. Also, the viability at 10 µM in data set [14] turned out to be 90%. Further, the figures for the inhibition in data set [16] and in data set [19] were 55% and above 90%, respectively. The apparent permeability from basolateral to apical (Papp B→A) at 2 h in data set [17] stood at 36.5 ×10⁻⁶ cm/s. In [21], the remaining at 2 h, 100 µM is 99.1%. The Papp A→B at 2 h in [22] was 16.7 ×10⁻⁶ cm/s.
As to `COc1cc2c(cc1OC)C(=O)C(CC1CCN(Cc3ccccc3)CC1)C2` (stereo unspecified) [DONEPEZIL], in data set [14], the viability at 10 µM worked out at 45%.

Usually inhibition stands for how much of the control response was suppressed. By solubility is commonly meant the concentration that dissolves in the medium under given conditions. In general, logD refers to lipophilicity at a set pH, counting ionised and neutral species. High values mean higher lipophilicity, low ones lower lipophilicity. The term Kd denotes the concentration at which binding is half-saturated. One may read the IC50 as the midpoint of a concentration-inhibition curve. The term half-life denotes the time in which the quantity being followed falls by half. The low end stands for rapid decline, the high end for slow decline. As a reminder, the Papp B→A is the apparent permeability from the basolateral to the apical side of a cell layer. As a reminder, the Papp A→B is how fast a substance crosses the layer from the apical side.

The record behind these values is ChEMBL document CHEMBL4725361, “MicroRNA-Based Multitarget Approach for Alzheimer's Disease: Discovery of the First-In-Class Dual Inhibitor of Acetylcholinesterase and MicroRNA-15b Biogenesis” (J Med Chem, 2020).
